Patent US10329289B2, “6,7-dihydro-5H-pyrrolo[3,4-B]pyridin-5-one allosteric modulators of the M4 muscarinic acetylcholine receptor” (Merck Sharp & Dohme Corp., priority 2015, dated 2019)

Each compound was assayed against T1, human M4 muscarinic acetylcholine receptor (Homo sapiens, UniProt P08173) (assay: human FLIPR-based M4 PAM assay (Ca2+ mobilization, CHO-K1 cells with human M4 receptor and Gαqi5)). Details: acetylcholine at 20% of maximum response, read-out: M4 PAM IP.
T1 construct: expressed in transfected cells; host or cells: CHO-K1
T1 sequence (P08173 1-479): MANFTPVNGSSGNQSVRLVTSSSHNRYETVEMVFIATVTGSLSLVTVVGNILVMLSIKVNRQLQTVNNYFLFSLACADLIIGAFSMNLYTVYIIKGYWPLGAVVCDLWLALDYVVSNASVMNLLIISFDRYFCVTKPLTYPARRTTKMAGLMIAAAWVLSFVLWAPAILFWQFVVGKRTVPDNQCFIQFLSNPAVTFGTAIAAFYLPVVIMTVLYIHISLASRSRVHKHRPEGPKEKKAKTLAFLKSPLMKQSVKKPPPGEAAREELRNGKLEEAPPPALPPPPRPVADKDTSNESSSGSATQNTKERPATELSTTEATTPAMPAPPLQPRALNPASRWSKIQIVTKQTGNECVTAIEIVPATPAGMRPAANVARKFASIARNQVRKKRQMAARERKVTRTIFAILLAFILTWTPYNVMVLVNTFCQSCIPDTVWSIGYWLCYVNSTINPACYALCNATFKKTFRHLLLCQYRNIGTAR
Assay type: cell-based
How it was run: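 Calcium-mobilization (FLIPR) readout in dye-loaded CHO-K1 cells co-expressing human M4 receptor and Gαqi5. Potentiation measured against acetylcholine at a concentration giving 20% of maximal response, with an optional 70% addition; the reported value is the curve inflection point from a 4-parameter logistic fit.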

Row | SMILES | EC50 [nM]
1 | Cc1cc2c(nc1N1CCC(Oc3ccc4c(c3)CNCC4)CC1)CNC2=O [Example 146, 3-methyl-2-(4-((1,2,3,4-tetrahydroisoquinolin-7-yl)oxy)piperidin-1-yl)-6,7-dihydro-5H-pyrrolo[3,4-b]pyridin-5-one] | 286
2 | Cc1cc2c(nc1N1CCC(Oc3ccc4c(c3)CNC4)CC1)CNC2=O [Example 147, 2-(4-(isoindolin-5-yloxy)piperidin-1-yl)-3-methyl-6,7-dihydro-5H-pyrrolo[3,4-b]pyridin-5-one] | 313
3 | Cc1cc2c(nc1N1CCC(Oc3ccc4c(c3)OCCN4)CC1)CNC2=O [Example 148, 2-(4-((3,4-dihydro-2H-benzo[b][1,4]oxazin-7-yl)oxy)piperidin-1-yl)-3-methyl-6,7-dihydro-5H-pyrrolo[3,4-b]pyridin-5-one] | 31
4 | Cc1nc2cc(OC3CCN(c4nc5c(cc4C)C(=O)NC5)CC3)ccc2[nH]1 [Example 149, 3-methyl-2-(4-((2-methyl-1H-benzo[d]imidazol-5-yl)oxy)piperidin-1-yl)-6,7-dihydro-5H-pyrrolo[3,4-b]pyridin-5-one] | 1000
5 | Cc1cc2c(nc1N1CCC(Oc3ccc(CO)cc3)CC1)CNC2=O [Example 151, 2-(4-(4-(hydroxymethyl)phen-oxy)piperidin-1-yl)-3-methyl-6,7-dihydro-5H-pyrrolo[3,4-b]pyridin-5-one] | 32
6 | Cc1cc2c(nc1N1CCC(Oc3ccnc(CO)c3)CC1)CNC2=O [Example 152, 2-(4-((2-(hydroxymethyl)pyridin-4-yl)oxy)piperidin-1-yl)-3-methyl-6,7-dihydro-5H-pyrrolo[3,4-b]pyridin-5-one] | 1150
7 | Cc1cc2c(nc1N1CCC(Oc3ccc4c(c3)c(C)nn4CCO)CC1)CNC2=O [Example 153, 2-(4-((1-(2-hydroxyethyl)-3-methyl-1H-indazol-5-yl)oxy)piperidin-1-yl)-3-methyl-6,7-dihydro-5H-pyrrolo[3,4-b]pyridin-5-one] | 528
8 | Cc1cc2c(nc1N1CCC(Oc3ccc4c(c3)OC[C@H]4CCO)CC1)CNC2=O [Example 154, (S)-2-(4-((3-(2-hydroxyethyl)-2,3-dihydrobenzofuran-6-yl)oxy)piperidin-1-yl)-3-methyl-6,7-dihydro-5H-pyrrolo[3,4-b]pyridin-5-one] | 128
9 | Cc1cc2c(nc1N1CCC(Oc3ccc(CO)nc3)CC1)CNC2=O [Example 155, 2-(4-((6-(hydroxymethyl)pyridin-3-yl)oxy)piperidin-1-yl)-3-methyl-6,7-dihydro-5H-pyrrolo[3,4-b]pyridin-5-one] | 117
10 | Cc1cc2c(nc1N1CCC(Oc3cncc(CO)c3)CC1)CNC2=O [Example 156, 2-(4-((5-(hydroxymethyl)pyridin-3-yl)oxy)piperidin-1-yl)-3-methyl-6,7-dihydro-5H-pyrrolo[3,4-b]pyridin-5-one] | 1220
11 | Cc1cc2c(nc1N1CCC(Oc3ccc4c(c3)CC[C@@H]4CCO)CC1)CNC2=O [Example 157A, (R)-2-(4-((1-(2-hydroxyethyl)-2,3-dihydro-1H-inden-5-yl)oxy)piperidin-1-yl)-3-methyl-6,7-dihydro-5H-pyrrolo[3,4-b]pyridin-5-one] | 93
12 | Cc1cc2c(nc1N1CCC(Oc3ccc4c(c3)CC[C@H]4CCO)CC1)CNC2=O [Example 157B, (S)-2-(4-((1-(2-hydroxyethyl)-2,3-dihydro-1H-inden-5-yl)oxy)piperidin-1-yl)-3-methyl-6,7-dihydro-5H-pyrrolo[3,4-b]pyridin-5-one] | 144
13 | Cc1cc2c(nc1N1CCC(Oc3ccc4c(c3)COC4)CC1)CNC2=O [Example 159, 2-[4-(1,3-Dihydro-2-benzofuran-5-yloxy)piperidin-1-yl]-3-methyl-6,7-dihydro-5H-pyrrolo[3,4-b]pyridin-5-one] | 28
14 | COC(=O)c1cc2c(nc1N1CCC(Oc3ccc(OC)nc3)CC1)CNC2=O [Example 160, methyl 2-(4-((6-methoxypyridin-3-yl)oxy)piperidin-1-yl)-5-oxo-6,7-dihydro-5H-pyrrolo[3,4-b]pyridine-3-carboxylate] | 231
15 | Cc1cc2c(nc1N1CCC(OCc3cccnc3)CC1)CNC2=O [Example 161, 3-Methyl-2-(4-(pyridin-3-ylmethoxy)piperidin-1-yl)-6,7-dihydro-5H-pyrrolo[3,4-b]pyridin-5-one] | 1520
16 | Cc1c(N2CC[C@@H](OCC3(C)CC3)[C@@H](F)C2)nc2c(c1C)C(=O)NC2 [Example 161A, 2-((3S,4R)-3-Fluoro-4-((1-methylcyclopropyl)methoxy)piperidin-1-yl)-3,4-dimethyl-6,7-dihydro-5H-pyrrolo[3,4-b]pyridin-5-one] | 21
17 | Cc1nc2ccc(O[C@@H]3CCN(c4nc5c(cc4C)C(=O)NC5)C[C@@H]3F)cc2o1 [Example 162, 2-((3S,4R)-3-fluoro-4-((2-methylbenzo[d]oxazol-6-yl)oxy)piperidin-1-yl)-3-methyl-6,7-dihydro-5H-pyrrolo[3,4-b]pyridin-5-one] | 51
18 | Cc1cc2c(nc1N1CC[C@@H](Oc3ccc4c(c3)C(=O)N(C)C4)[C@@H](F)C1)CNC2=O [Example 163, 2-((3S,4R)-3-fluoro-4-((2-methyl-3-oxoisoindolin-5-yl)oxy)piperidin-1-yl)-3-methyl-6,7-dihydro-5H-pyrrolo[3,4-b]pyridin-5-one] | 277
19 | COc1ccc(O[C@@H]2CCN(c3nc4c(cc3C)C(=O)NC4)C[C@@H]2F)cn1 [Example 164, 2-((3S,4R)-3-fluoro-4-((6-methoxypyridin-3-yl)oxy)piperidin-1-yl)-3-methyl-6,7-dihydro-5H-pyrrolo[3,4-b]pyridin-5-one] | 82
20 | Cc1cc2c(nc1N1CCC(Oc3ccc4[nH]ncc4c3)CC1)CNC2=O [Example 167, 2-(4-((1H-indazol-5-yl)oxy)piperidin-1-yl)-3-methyl-6,7-dihydro-5H-pyrrolo[3,4-b]pyridin-5-one] | 14
21 | Cc1cc2c(nc1N1CCC(Oc3ccc(OCCN(C)C)nc3)CC1)CNC2=O [Example 168, 2-(4-((6-(2-(dimethylamino)ethoxy)pyridin-3-yl)oxy)piperidin-1-yl)-3-methyl-6,7-dihydro-5H-pyrrolo[3,4-b]pyridin-5-one] | 119
22 | Cc1cc2c(nc1N1CCC(Oc3ccc(OCC(C)(C)N)nc3)CC1)CNC2=O [Example 169, 2-(4-((6-(2-amino-2-methylpropoxy)pyridin-3-yl)oxy)piperidin-1-yl)-3-methyl-6,7-dihydro-5H-pyrrolo[3,4-b]pyridin-5-one] | 183

Further lines, results first:

Row | EC50 [nM] | SMILES
23 | 59 | CO[C@@H]1Cc2ccc(OC3CCN(c4nc5c(cc4C)C(=O)NC5)CC3)cc2C1 [Example 162A, (R)-2-(4-((2-methoxy-2,3-dihydro-1H-inden-5-yl)oxy)piperidin-1-yl)-3-methyl-6,7-dihydro-5H-pyrrolo[3,4-b]pyridin-5-one]
24 | 47 | CO[C@H]1Cc2ccc(OC3CCN(c4nc5c(cc4C)C(=O)NC5)CC3)cc2C1 [Example 162B, (S)-2-(4-((2-methoxy-2,3-dihydro-1H-inden-5-yl)oxy)piperidin-1-yl)-3-methyl-6,7-dihydro-5H-pyrrolo[3,4-b]pyridin-5-one]
25 | 1140 | Cc1cc2c(nc1N1CCC(Oc3ccc4[nH]nnc4c3)CC1)CNC2=O [Example 163A, 2-(4-((1H-benzo[d][1,2,3]triazol-5-yl)oxy)piperidin-1-yl)-3-methyl-6,7-dihydro-5H-pyrrolo[3,4-b]pyridin-5-one]
26 | 202 | CCc1cc2c(nc1N1CC[C@@H](Oc3cnc4c(c3)COC4)[C@@H](F)C1)CNC2=O [Example 164A, 2-((3S,4R)-4-((5,7-dihydrofuro[3,4-b]pyridin-3-yl)oxy)-3-fluoropiperidin-1-yl)-3-ethyl-6,7-dihydro-5H-pyrrolo[3,4-b]pyridin-5-one]
27 | 83 | Cc1c(N2CC[C@@H](Oc3cnc4c(c3)COC4)[C@@H](F)C2)nc2c(c1C)C(=O)NC2 [Example 165A, 2-((3S,4R)-4-((5,7-dihydrofuro[3,4-b]pyridin-3-yl)oxy)-3-fluoropiperidin-1-yl)-3,4-dimethyl-6,7-dihydro-5H-pyrrolo[3,4-b]pyridin-5-one]
28 | 61 | CCc1cc2c(nc1N1CCC(Oc3ccc4c(c3)C[C@H](O)C4)CC1)CNC2=O [Example 166A, (R)-3-ethyl-2-(4-((2-hydroxy-2,3-dihydro-1H-inden-5-yl)oxy)piperidin-1-yl)-6,7-dihydro-5H-pyrrolo[3,4-b]pyridin-5-one]
29 | 57 | CCc1cc2c(nc1N1CCC(Oc3ccc4c(c3)C[C@@H](O)C4)CC1)CNC2=O [Example 166B, (S)-3-ethyl-2-(4-((2-hydroxy-2,3-dihydro-1H-inden-5-yl)oxy)piperidin-1-yl)-6,7-dihydro-5H-pyrrolo[3,4-b]pyridin-5-one]
30 | 188 | Cc1cc2c(nc1N1CCC(Oc3ccc4c(c3)C[S+]([O-])C4)CC1)CNC2=O (stereo not shown) [Example 167A, 3-methyl-2-(4-((2-oxido-1,3-dihydrobenzo[c]thio-phen-5-yl)oxy)piperidin-1-yl)-6,7-dihydro-5H-pyrrolo[3,4-b]pyridin-5-one]
31 | 180 | CCn1cc(OC2CCN(c3nc4c(cc3C)C(=O)NC4)CC2)cn1 [Example 169A, 2-(4-((1-ethyl-1H-pyrazol-4-yl)oxy)piperidin-1-yl)-3-methyl-6,7-dihydro-5H-pyrrolo[3,4-b]pyridin-5-one]
